Measured values from US20230263754A1, “SOLID DISPERSIONS AND PARTICLES AND METHODS FOR CONTROLLED-RELEASE OF LIPID-SOLUBLE OR DISPESIBLE ACTIVES” (YISSUM RESEARCH DEVELOPMENT COMPANY OF THE HEBREW …, priority 2020, published 2023).
Values belong to the compound of their own block, whether it stands above or below them.

Assays:
Format in all cases: physicochemical
[1] = Encapsulation efficiency and loading capacity of solid lipid microspheres (UV after dissolving in chloroform)
Description: The standard curves were constructed in a concentration range of 3-70 µg/mL in 10 mM PBS with R^2 value of 0.9993 and in a concentration range of 15-800 µg/mL in chloroform with R^2 value of 0.9935.
Encapsulation efficiency is percentage of drug encapsulated in the microspheres relating to initial quantity used. 10 mg of microspheres were dissolved in 4 mL of chloroform. The absorbance of the drugs was measured using a UV-VIS spectrophotometer after appropriate dilution in order to reach calibration curve concentrations. The measured absorbance was then converted to the amount of drug by using standard calibration curve.
The loading capacity is usually expressed as the ratio of the weight of entrapped drug and the total weight of the lipid and coating particles in percentage.
Drug entrapment efficiency is calculated in order to determine the amount of drug that is actually retained in the microparticles related to the amount of drug that was mixed with lipid before particles formation, and usually expressed as a percentage.

[2] = In vitro drug release from beeswax microspheres (Example 6)
Description: 10 mg of microspheres were mixed with 5 mL of H2O or buffer and placed in the incubator. Three samples of each formulation were run at same conditions. A 3 mL samples were withdrawn at predetermined time intervals and an equal volume of fresh dissolution medium was replaced.
In vitro drug release for the obtained microspheres was studied in 5 ml of 10 mM buffer phosphate solution, pH 7.4 or in ddH2O at 37° C.

[3] = Release of drugs from Pickering particles in phosphate buffer (Example 3); details: for time within which almost all the drug was released: 1% (w/w) drug loaded Pickering dispersion, aqueous solution, room temperature; for release behaviour from the Pickering particles in the release medium: FIGS. 6, buffer medium
Description: Release of drugs from particles: Standard curve of drug was prepared in 10 mM phosphate buffer at pH 7.2. 10 mg of drug loaded lyophilized Pickering particles were added to 2 mL of buffer and the periodic isolated solution was analyzed by UV. The release was examined at room temperature. This was done in purpose to examine the drug release properties from the Pickering particles. The analysis of initial 30 min of release is considered as the burst release of drugs from the particles (FIGS. 6).
Release of ibuprofen from 1% (w/w) drug loaded Pickering dispersion. The release of ibuprofen was monitored by UV at the wavelength of 223 nm.
Release of ketoprofen from 1% (w/w) drug loaded Pickering dispersion. Standard curve of ketoprofen was prepared in 10 mM phosphate buffer at pH 7.2 at wavelength of 260 nm.
The particles were checked for the drug release with time. FIGS. 6 provides the release of the drug loaded Pickering particles in a buffer medium.

[4] = Weight loss of DEET loaded microparticles at accelerated temperature; details: 30% w/w DEET loaded microparticles, 1:10 SiO2-NH2:hydrogenated vegetable oil, accelerated temperature 50° C., 1 h
Description: Drug loading: DEET insect repellent 30% (w/w): 30% w/w of DEET was loaded into the microparticles. The selection of the 30% drug content was based on the dissolving the DEET into the molten oil and then cooled down. The DEET loading was examined for 1:1, 1:2, 1:10 and 1:20 ratio SiO2-NH2:hydrogenated vegetable oil. The DEET loaded particles were tested by weight loss in the DEET loaded 1:10 ratio was examined. Accelerated temperature of 50° C. was used. The weight sample was heated to […] and monitored the weight loss for 1 h. 2% decrease in the weight loss of the DEET loaded microparticles was observed.

[5] = Fluazinam release from microparticles immersed in water; details: hydrogenated vegetable oil particles decorated with modified silica nanoparticles, about 20 microns, room temperature

Compound: CCN(CC)CC(=O)Nc1c(C)cccc1C [Lidocaine]
entrapment efficacy ([1]; Lidocaine in Beeswax-Chitosan particles (pH 6.5)): 49% | drug released in initial burst, first 24 h ([2]; Lidocaine from Beeswax-Chitosan microspheres, 10 mM phosphate buffer pH 7.4, 37° C.): about 70%

Compound: O=[N+]([O-])c1cc(C(F)(F)F)c(Cl)c([N+](=O)[O-])c1Nc1ncc(C(F)(F)F)cc1Cl [Fluazinam]
release behaviour in water [5]: constantly releasing

Compound: CC(C(=O)O)c1cccc(C(=O)c2ccccc2)c1 (stereo not drawn) [ketoprofen]
time within which almost all the drug was released [3]: ≤ 30 min

Compound: CN(C)CCC[C@@]1(c2ccc(F)cc2)OCc2cc(C#N)ccc21 [escitalopram]
release behaviour from the Pickering particles in the release medium [3]: sustained release

More lines, now with the values ahead:

loading capacity ([1]; Ibuprofen in Beeswax-Starch MSs, average of three experiments): 15.7% | entrapment efficiency ([1]; Ibuprofen-loaded microspheres from beeswax and starch): 71% | time within which almost all the drug was released [3]: ≤ 30 min | release behaviour from the Pickering particles in the release medium [3]: sustained release | time during which most of the drug was released ([2]; Ibuprofen from Beeswax-Starch MSs, PBS pH 7.4, 37° C.): 4 days | further continuation of release in water compared with buffer ([2]; Ibuprofen from Beeswax-Starch MSs, ddH2O, 37° C.): 7 days
Compound: CC(C)Cc1ccc(C(C)C(=O)O)cc1 (stereo not drawn) [ibuprofen]

decrease in weight (weight loss) [4]: 2%
Compound: CCN(CC)C(=O)c1cccc(C)c1 [DEET]
